Holding throughout (assay type): cell-based
In assay [1] the test system is mPTP-active Daoy cell. Put plainly: CellTiter-Glo cell viability inhibition, mPTP-active Daoy cell. As to conditions: Homo sapiens. (ATP-based viability assays read luminescence as a measure of living cells.)
Assay [2] relates to Con-NCI-H82 cell. Put plainly: CellTiter-Glo cell viability inhibition, Con-NCI-H82 cell. As to conditions: Homo sapiens, NCI-H82 cell transfected with empty virus vector. From the text: (§1) The expression of NNMT protein in NCI-H82 cell was overexpressed by inserting the NNMT gene into NCI-H82 cell using a viral vector, and the NNMT protein-overexpressing NCI-H82 cell (ov-NNMT NCI-H82 cell) was obtained. The control NCI-H82 cell (Con-NCI-H82 cell) was obtained by transfecting NCI-H82 cell with empty virus vector without carrying NNMT gene. The expressing content of NNMT protein in the Con-NCI-H82 cell and ov-NNMT NCI-H82 cell was detected using Western Blot assay (as shown in FIG. 3), it could be seen from FIG. 3 that the NNMT protein was overexpressed in the ov-NNMT NCI-H82 cell compared with the expression level of NNMT protein in the Con-NCI-H82 cell.

In assay [3] the test system is mPTP-inactive Daoy cell. The assay can be described thus: CellTiter-Glo cell viability inhibition, mPTP-inactive Daoy cell. As to conditions: Homo sapiens, Daoy cell transfected with PPIF shRNA vector.
Assay [4] relates to ov-NNMT NCI-H82 cell. The assay can be described thus: CellTiter-Glo cell viability inhibition, ov-NNMT NCI-H82 cell. The settings on record: Homo sapiens, NCI-H82 cell overexpressing NNMT protein.
Source text: as §1

Setting [5] is: Daoy cell transfected with empty virus vector, CellTiter-Glo, read-out: mPTP-active Daoy cell (IC50).

Read-outs that look alike come from different tables or passages of the source.

One may read the IC50 as the concentration needed to halve the response being measured. In the case of `c1ccc([P+](c2ccccc2)(c2ccccc2)c2cccc3sccc23)cc1` [AB36535], the IC50 stood at 1.56 µM in assay [1] (setting [5]), 0.46 µM in assay [2], 0.37 µM in assay [3] and 2.32 µM in assay [4].
Taken in the same sequence, the figures for `c1ccc([P+](c2ccccc2)(c2ccccc2)c2cccc3[nH]ccc23)cc1` [AB35450] were 0.43 µM, 0.23 µM, 0.1 µM and 1.56 µM.
For `c1ccc([P+](c2ccccc2)(c2ccccc2)c2cscn2)cc1` [AB36537], the IC50 in assay [1] (setting [5]) came to 14.4 µM; in assay [2], 3.97 µM; in assay [3], 3.55 µM; in assay [4], 8.16 µM.
Taken in the same sequence, the figures for `COc1ccc([P+](c2ccccc2)(c2ccccc2)c2cccc3[nH]ccc23)cc1` [AB36513] were 1.96 µM, 0.11 µM, 0.38 µM and 0.86 µM.
Taken in the same sequence, the figures for `COc1ccc([P+](c2ccc(OC)cc2)(c2cccc3[nH]ccc23)c2cccc3[nH]ncc23)cc1` [AB36498] were 6.65 µM, 1.01 µM, 1.32 µM and 3.43 µM.
Taken in the same sequence, the figures for `c1ccc([P+](c2ccccc2)(c2ccc3[nH]cnc3c2)c2cccc3[nH]ccc23)cc1` [AB35569] were 12.2 µM, 1.66 µM, 2.34 µM and 5.34 µM.
Turning to `C1=C([P+](c2ccccc2)(c2ccccc2)c2ccccc2)CCOC1` [AB36546], the half-maximal inhibitory concentration (IC50) in assay [1] (setting [5]) worked out at 35.1 µM; in assay [2], 4.72 µM; in assay [3], 7.28 µM; in assay [4], 10.5 µM.
In the same order, the values of `c1ccc([P+](c2ccccc2)(c2cncc3[nH]ccc23)c2cncc3[nH]ccc23)cc1` [AB35477] are 24.2 µM, 25.3 µM, 10.3 µM and over 50 µM.
Taken in the same sequence, the figures for `c1ccc([P+](c2ccccc2)(c2ccccc2)c2cccc3c2ccn3CCN2CCCCC2)cc1` [AB35579] were 1.21 µM, 0.51 µM, 0.27 µM and 2.77 µM.
In the same order, the values of `c1ccc([P+](c2ccccc2)(c2cccc3[nH]ccc23)c2cccc3[nH]ccc23)cc1` [AB35419] are 0.74 µM, 0.05 µM, 0.15 µM and 0.56 µM.
In the case of `c1ccc([P+](c2ccccc2)(c2ccc3[nH]ccc3c2)c2ccc3[nH]ccc3n2)cc1` [AB35597], the half-inhibitory concentration (IC50) in assay [1] (setting [5]) came to 1.18 µM; in assay [2], 0.18 µM; in assay [3] it was 0.24 µM; in assay [4], 1.85 µM.
As to `c1ccc([P+](c2ccccc2)(c2ccccc2)c2cccc3c2ccn3CCN2CCOCC2)cc1` [AB35585], the IC50 in assay [1] (setting [5]) turned out to be 3.54 µM; in assay [2], 0.52 µM; in assay [3], 1.22 µM; in assay [4] it was 3.34 µM.
With `COc1ccc([P+](c2ccc(OC)cc2)(c2cccc3c2ccn3C)c2cccc3c2ccn3C)cc1` [AB36420], the IC50 in assay [1] (setting [5]) came to 1.09 µM; in assay [2] it was 0.14 µM; in assay [3], 0.19 µM; in assay [4], 0.98 µM.
Taken in the same sequence, the figures for `c1ccc([P+](c2ccccc2)(c2ccc3cc[nH]c3c2)c2cnc3cc[nH]c3c2)cc1` [AB35549] were 10.5 µM, 3.18 µM, 3.85 µM and 9.57 µM.
Consider `COc1ccc([P+](c2ccc(OC)cc2)(c2cccc3nn(C)cc23)c2cccc3c2cnn3C)cc1` [AB36445], for which the IC50 in assay [1] (setting [5]) was 13.9 µM; in assay [2] it was 6.92 µM; in assay [3] it was 3.02 µM; in assay [4] it was 18.3 µM.
Taken in the same sequence, the figures for `c1ccc([P+](c2ccccc2)(c2ccccc2)c2ccoc2)cc1` [AB36533] were 11.9 µM, 3.09 µM, 3.52 µM and 8.97 µM.
Taken in the same sequence, the figures for `COc1ccc([P+](c2ccc(OC)cc2)(c2cccc3nn(C)cc23)c2cccc3nn(C)cc23)cc1` [AB36471] were 6.36 µM, 2.86 µM, 1.48 µM and 11 µM.
Turning to `c1ccc([P+](c2ccccc2)(c2cc3cc[nH]c3cn2)c2cccc3[nH]ccc23)cc1` [AB35588], the IC50 is 1.14 µM in assay [1] (setting [5]), 0.21 µM in assay [2], 0.38 µM in assay [3] and 1.78 µM in assay [4].
Take `c1ccc([P+](c2ccccc2)(c2ccc3cc[nH]c3c2)c2ccc3cn[nH]c3c2)cc1` [AB35538]: the IC50 in assay [1] (setting [5]) worked out at 5.94 µM; in assay [2] it was 0.97 µM; in assay [3] it was 1.71 µM; in assay [4], 3.86 µM.
Taken in the same sequence, the figures for `c1ccc([P+](c2ccccc2)(c2ccccc2)c2cccc3scnc23)cc1` [AB36534] were 3.66 µM, 1.35 µM, 1.21 µM and 5.11 µM.
For `c1ccc([P+](c2ccccc2)(c2cccc3[nH]ccc23)c2cncc3[nH]ccc23)cc1` [AB35452], the concentration for half-maximal inhibition (IC50) in assay [1] (setting [5]) came to 5.39 µM; in assay [2], 0.63 µM; in assay [3] it was 0.82 µM; in assay [4], 2.34 µM.
As for `COc1ccc([P+](c2ccc(OC)cc2)(c2cccc3c2ccn3C)c2ccnc3c2ccn3C)cc1` [AB36407], the IC50 in assay [1] (setting [5]) came to 1.13 µM; in assay [2] it was 0.24 µM; in assay [3] it was 0.24 µM; in assay [4], 1.55 µM.
In the case of `c1ccc([P+](c2ccccc2)(c2ccc3[nH]ccc3n2)c2cccc3[nH]ccc23)cc1` [AB35584], the IC50 was found to be 1.34 µM in assay [1] (setting [5]), 0.24 µM in assay [2], 0.46 µM in assay [3] and 1.73 µM in assay [4].
Taken in the same sequence, the figures for `COc1ccc([P+](c2ccc(OC)cc2)(c2cc3cc[nH]c3cn2)c2cccc3[nH]ccc23)cc1` [AB36453] were 1.85 µM, 0.35 µM, 0.29 µM and 1.62 µM.
In the same order, the values of `COc1ccc([P+](c2ccc(OC)cc2)(c2cccc3c2ccn3C)c2cccc3c2cnn3C)cc1` [AB36438] are 1.03 µM, 0.32 µM, 0.24 µM and 1.53 µM.
Taken in the same sequence, the figures for `c1ccc([P+](c2ccccc2)(c2cccc3[nH]ccc23)c2cccc3[nH]cnc23)cc1` [AB35572] were 10.3 µM, 0.28 µM, 3.34 µM and 1.95 µM.
On to `c1ccc([P+](c2ccccc2)(c2ccccc2)c2ccc3c(ccn3CCN3CCOCC3)c2)cc1` [AB35576], for which the IC50 in assay [1] (setting [5]) stood at 1.6 µM; in assay [2], 0.51 µM; in assay [3] it was 0.46 µM; in assay [4], 2.93 µM.
As for `CCCCCCCCCCCCCC[P+](c1ccccc1)(c1ccccc1)c1ccccc1` [SJ00006], the IC50 came out at 0.29 µM in assay [1] (setting [5]), 0.13 µM in assay [2], 0.34 µM in assay [3] and 0.14 µM in assay [4].
In the same order, the values of `c1ccc([P+](c2ccccc2)(c2ccccc2)c2cccc3[nH]ncc23)cc1` [AB35481] are 16.7 µM, 2.45 µM, 2.5 µM and 9.82 µM.
Taken in the same sequence, the figures for `COc1ccc([P+](c2ccc(OC)cc2)(c2cccc3c2cnn3C)c2cccc3c2cnn3C)cc1` [AB36439] were 4.36 µM, 3.07 µM, 1.29 µM and 7.83 µM.
For the compound `c1ccc([P+](c2ccccc2)(c2cccc3cc[nH]c23)c2cccc3cc[nH]c23)cc1` [AB35462], the IC50 amounted to 28.9 µM in assay [1] (setting [5]), 6.48 µM in assay [2], 12.7 µM in assay [3] and 20.6 µM in assay [4].
For `c1ccc(P(=[N+]=P(c2ccccc2)(c2ccccc2)c2ccccc2)(c2ccccc2)c2ccccc2)cc1` [SJ00002], the 50% inhibitory concentration (IC50) in assay [1] (setting [5]) came to 0.44 µM; in assay [2], 0.18 µM; in assay [3] it was 0.46 µM; in assay [4], 0.21 µM.
Regarding `Cn1cc2c([P+](c3ccccc3)(c3ccccc3)c3cccc4c3ccn4C)cccc2n1` [AB35574], the concentration for half-maximal inhibition (IC50) in assay [1] (setting [5]) amounted to 8.35 µM; in assay [2], 0.41 µM; in assay [3], 2.45 µM; in assay [4], 2.56 µM.
In the same order, the values of `COc1ccc([P+](c2ccc(OC)cc2)(c2ccnc3c2ccn3C)c2ccnc3c2ccn3C)cc1` [AB36448] are 7.24 µM, 4.23 µM, 2 µM and 11.3 µM.
As for `c1ccc([P+](c2ccccc2)(c2ccc3[nH]ccc3c2)c2ccc3[nH]cnc3c2)cc1` [AB35539], the 50% inhibitory concentration (IC50) in assay [1] (setting [5]) amounted to 12.2 µM; in assay [2], 1.55 µM; in assay [3] it was 3.88 µM; in assay [4], 6.03 µM.
`CCCCCCCCCCCC[P+](c1ccccc1)(c1ccccc1)c1ccccc1` [SJ00005]: the IC50 in assay [1] (Daoy, read-out: mPTP-active Daoy cell (IC50, μM)) stood at 0.32 µM; in assay [2] it was 0.19 µM; in assay [3], 0.33 µM; in assay [4], 0.17 µM.
For `C(=C\C[P+](c1ccccc1)(c1ccccc1)c1ccccc1)/C[P+](c1ccccc1)(c1ccccc1)c1ccccc1` [SJ00001], the 50% inhibitory concentration (IC50) in assay [1] (setting [5]) came to 3.71 µM; in assay [2] it was 0.68 µM; in assay [3], 3.44 µM; in assay [4] it was 0.79 µM.
